PubChem BioAssay (NCI)
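Each compound was tested at five concentrations against cells in 96-well plates for 48 hours. At the TGI there is no net growth.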

What was measured:
Assay in all cases: NCI-60 cell line screen, 48 h
COLO 205 colon = tested on: COLO 205 colon
K-562 leukemia = tested on: K-562 leukemia
T-47D breast = tested on: T-47D breast
NCI-H23 lung = tested on: NCI-H23 lung
HS 578T breast = tested on: HS 578T breast
SK-MEL-5 melanoma = tested on: SK-MEL-5 melanoma
MCF7 breast = tested on: MCF7 breast
HL-60(TB) leukemia = tested on: HL-60(TB) leukemia
SR leukemia = tested on: SR leukemia
NCI/ADR-RES ovarian = tested on: NCI/ADR-RES ovarian
UACC-257 melanoma = tested on: UACC-257 melanoma
ACHN renal = tested on: ACHN renal
LOX IMVI melanoma = tested on: LOX IMVI melanoma
SNB-19 CNS = tested on: SNB-19 CNS
PC-3 prostate = tested on: PC-3 prostate
HOP-62 NSCLC = tested on: HOP-62 NSCLC
A498 renal = tested on: A498 renal
SF-539 CNS = tested on: SF-539 CNS
SN12C renal = tested on: SN12C renal
NCI-H522 lung = tested on: NCI-H522 lung
HT29 colon = tested on: HT29 colon
SK-MEL-2 melanoma = tested on: SK-MEL-2 melanoma
BT-549 breast = tested on: BT-549 breast
HCT-116 colon = tested on: HCT-116 colon
UACC-62 melanoma = tested on: UACC-62 melanoma
SNB-75 CNS = tested on: SNB-75 CNS
A549 NSCLC = tested on: A549 NSCLC
M14 melanoma = tested on: M14 melanoma
RXF 393 renal = tested on: RXF 393 renal
OVCAR-4 ovarian = tested on: OVCAR-4 ovarian
MALME-3M melanoma = tested on: MALME-3M melanoma
SK-OV-3 ovarian = tested on: SK-OV-3 ovarian
SF-295 CNS = tested on: SF-295 CNS
UO-31 renal = tested on: UO-31 renal
SF-268 CNS = tested on: SF-268 CNS
OVCAR-3 ovarian = tested on: OVCAR-3 ovarian
MDA-N = tested on: MDA-N
SK-MEL-28 melanoma = tested on: SK-MEL-28 melanoma
MDA-MB-231 breast = tested on: MDA-MB-231 breast
HOP-92 NSCLC = tested on: HOP-92 NSCLC
IGROV1 ovarian = tested on: IGROV1 ovarian
SW-620 colon = tested on: SW-620 colon
OVCAR-5 ovarian = tested on: OVCAR-5 ovarian
OVCAR-8 ovarian = tested on: OVCAR-8 ovarian
CAKI-1 renal = tested on: CAKI-1 renal
KM12 colon = tested on: KM12 colon
TK-10 renal = tested on: TK-10 renal
NCI-H226 lung = tested on: NCI-H226 lung
MOLT-4 leukemia = tested on: MOLT-4 leukemia
HCT-15 colon = tested on: HCT-15 colon
DU-145 prostate = tested on: DU-145 prostate
NCI-H460 lung = tested on: NCI-H460 lung
MDA-MB-435 = tested on: MDA-MB-435
786-0 renal = tested on: 786-0 renal
U251 CNS = tested on: U251 CNS
CCRF-CEM leukemia = tested on: CCRF-CEM leukemia
EKVX NSCLC = tested on: EKVX NSCLC
HCC-2998 colon = tested on: HCC-2998 colon
RPMI-8226 leukemia = tested on: RPMI-8226 leukemia

CCOC(=O)CCc1c(C(=O)OCC)[nH]c(/C=C2/NC(=O)C(C)=C2CC)c1C
TGI (COLO 205 colon): 33.2 µM
TGI (K-562 leukemia): 12.9 µM
TGI (T-47D breast): 9.59 µM
TGI (NCI-H23 lung): 11.7 µM
TGI (HS 578T breast): 95.3 µM
TGI (SK-MEL-5 melanoma): 13.2 µM
TGI (MCF7 breast): 17.7 µM
TGI (HL-60(TB) leukemia): 25.7 µM
TGI (SR leukemia): 20.4 µM
TGI (NCI/ADR-RES ovarian): 36.9 µM
TGI (UACC-257 melanoma): 25.3 µM
TGI (ACHN renal): 60.9 µM
TGI (LOX IMVI melanoma): 21 µM
TGI (SNB-19 CNS): 37.2 µM
TGI (PC-3 prostate): > 100 µM
TGI (HOP-62 NSCLC): 29.8 µM
TGI (A498 renal): 77.6 µM
TGI (SF-539 CNS): 44.4 µM
TGI (SN12C renal): 37.9 µM
TGI (NCI-H522 lung): 31.8 µM
TGI (HT29 colon): 39.9 µM
TGI (SK-MEL-2 melanoma): 40.9 µM
TGI (BT-549 breast): 6.19 µM
TGI (HCT-116 colon): 28.1 µM
TGI (UACC-62 melanoma): 19.7 µM
TGI (SNB-75 CNS): 42.7 µM
TGI (A549 NSCLC): > 100 µM
TGI (M14 melanoma): 20.8 µM
TGI (RXF 393 renal): 30.3 µM
TGI (OVCAR-4 ovarian): 8.91 µM
TGI (MALME-3M melanoma): 33.3 µM
TGI (SK-OV-3 ovarian): > 100 µM
TGI (SF-295 CNS): 30.6 µM
TGI (UO-31 renal): 10.5 µM
TGI (SF-268 CNS): 29.2 µM
TGI (OVCAR-3 ovarian): 16.1 µM
TGI (MDA-N): 26.6 µM
TGI (SK-MEL-28 melanoma): 30.2 µM
TGI (MDA-MB-231 breast): 48.3 µM
TGI (HOP-92 NSCLC): 42.4 µM
TGI (IGROV1 ovarian): 47.7 µM
TGI (SW-620 colon): > 100 µM
TGI (OVCAR-5 ovarian): > 100 µM
TGI (OVCAR-8 ovarian): > 100 µM
TGI (CAKI-1 renal): 80.2 µM
TGI (KM12 colon): 23.9 µM
TGI (TK-10 renal): 88.2 µM
TGI (NCI-H226 lung): 48.2 µM
TGI (MOLT-4 leukemia): 13.1 µM
TGI (HCT-15 colon): 15.3 µM
TGI (DU-145 prostate): 44.6 µM
TGI (NCI-H460 lung): > 100 µM
TGI (MDA-MB-435): 19.7 µM
TGI (786-0 renal): 46.2 µM
TGI (U251 CNS): 24.1 µM

Cc1[nH]c2ncn(/N=C/c3ccccc3)c(=N)c2c1Cc1ccccc1
TGI (COLO 205 colon): > 100 µM
TGI (K-562 leukemia): > 100 µM
TGI (T-47D breast): > 100 µM
TGI (NCI-H23 lung): > 100 µM
TGI (HS 578T breast): > 100 µM
TGI (MCF7 breast): > 100 µM
TGI (HL-60(TB) leukemia): > 100 µM
TGI (CCRF-CEM leukemia): > 100 µM
TGI (NCI/ADR-RES ovarian): > 100 µM
TGI (UACC-257 melanoma): > 100 µM
TGI (ACHN renal): > 100 µM
TGI (LOX IMVI melanoma): > 100 µM
TGI (SNB-19 CNS): > 100 µM
TGI (PC-3 prostate): > 100 µM
TGI (HOP-62 NSCLC): > 100 µM
TGI (A498 renal): > 100 µM
TGI (SF-539 CNS): > 100 µM
TGI (SN12C renal): > 100 µM
TGI (HT29 colon): > 100 µM
TGI (SK-MEL-2 melanoma): > 100 µM
TGI (BT-549 breast): > 100 µM
TGI (HCT-116 colon): > 100 µM
TGI (UACC-62 melanoma): > 100 µM
TGI (SNB-75 CNS): > 100 µM
TGI (A549 NSCLC): > 100 µM
TGI (M14 melanoma): > 100 µM
TGI (RXF 393 renal): > 100 µM
TGI (OVCAR-4 ovarian): > 100 µM
TGI (EKVX NSCLC): > 100 µM
TGI (HCC-2998 colon): > 100 µM
TGI (SK-OV-3 ovarian): > 100 µM
TGI (SF-295 CNS): > 100 µM
TGI (UO-31 renal): > 100 µM
TGI (SF-268 CNS): > 100 µM
TGI (OVCAR-3 ovarian): > 100 µM
TGI (MDA-N): > 100 µM
TGI (SK-MEL-28 melanoma): > 100 µM
TGI (MDA-MB-231 breast): > 100 µM
TGI (HOP-92 NSCLC): > 100 µM
TGI (IGROV1 ovarian): > 100 µM
TGI (RPMI-8226 leukemia): > 100 µM
TGI (SW-620 colon): > 100 µM
TGI (OVCAR-5 ovarian): > 100 µM
TGI (OVCAR-8 ovarian): > 100 µM
TGI (CAKI-1 renal): > 100 µM
TGI (KM12 colon): > 100 µM
TGI (TK-10 renal): > 100 µM
TGI (NCI-H226 lung): > 100 µM
TGI (MOLT-4 leukemia): > 100 µM
TGI (HCT-15 colon): > 100 µM
TGI (DU-145 prostate): > 100 µM
TGI (NCI-H460 lung): > 100 µM
TGI (MDA-MB-435): > 100 µM
TGI (786-0 renal): > 100 µM
TGI (U251 CNS): > 100 µM
